Assay results from ChEMBL document CHEMBL1201862, “PubChem BioAssay data set” (2004).
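Values below derive from 48-hour exposures of cells grown in 96-well plates, with endpoints linearly interpolated between the two concentrations bracketing the appropriate inhibition level. Here, GI50 denotes the concentration required for 50% inhibition of growth.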 Activity calls are given as the source filed them. Cut-off read from the data, not from the text of the source: active = GI50 up to about 1.1 µM and inactive = higher.

How the values were obtained:
Experiment in all cases: NCI-60 cell line screen, 48 h
[1] = system: XF498
[2] = system: SNB-78
[3] = system: KM-20L2
[4] = system: LXFL 529
[5] = system: HOP-18
[6] = system: DMS-114
[7] = system: M19-MEL
[8] = system: DMS-273
[9] = system: RXF 631

Measured: GI50

O=c1c2ccccc2[nH]c(=S)n1-c1ccc(Br)cc1
inactive: [1] > 100 µM | [2] > 100 µM | [3] 63.4 µM | [4] 37.3 µM | [5] > 100 µM | [6] 46.7 µM | [7] 74.8 µM

O=c1c2cccnc2ncn1CCCN1CCOCC1
inactive: [1] > 100 µM | [2] > 100 µM | [3] > 100 µM | [8] > 100 µM | [4] > 100 µM | [6] > 100 µM | [7] > 100 µM

COc1cc(-c2n[nH]cc2CCCC(=O)Nc2ccccc2[N+](=O)[O-])ccc1O
inactive: [1] > 100 µM | [8] 66.7 µM | [4] > 100 µM | [5] > 100 µM | [6] 25.4 µM

N#CCCN(c1ccc(/C=C2\N=C(c3ccc(Cl)cc3)OC2=O)cc1)S(=O)(=O)c1ccccc1
inactive: [1] > 100 µM | [3] > 100 µM | [9] > 100 µM | [8] > 100 µM | [4] > 100 µM | [6] > 100 µM | [7] > 100 µM

Cn1c(=O)oc2cc(C3CCC(=O)N3Cc3csc(-c4ccccc4)n3)ccc21 (configuration not stated)
inactive: [1] 67.1 µM | [2] > 100 µM | [3] > 100 µM | [8] 89.5 µM | [4] 96.6 µM | [5] > 100 µM | [6] > 100 µM | [7] > 100 µM

Cc1ccccc1C1CC(c2ccccc2)=NO1 (configuration not stated)
inactive: [2] > 100 µM | [3] > 100 µM | [9] > 100 µM | [8] > 100 µM | [4] > 100 µM | [5] > 100 µM | [6] > 100 µM

Cc1c(C2Cc3ccccc3N2)c2ccccc2n1C (configuration not stated)
inactive: [1] > 100 µM | [2] > 100 µM | [3] > 100 µM | [8] > 100 µM | [4] > 100 µM | [6] > 100 µM | [7] > 100 µM

CCc1cccc(C)c1NC(=O)CCc1n[nH]c(=S)o1
inactive: [2] > 100 µM | [3] > 100 µM | [8] 37.8 µM | [4] > 100 µM | [5] > 100 µM | [7] > 100 µM

O=[N+]([O-])C(=C1c2ccccc2-c2ccccc21)[N+](=O)[O-]
inactive: [2] > 100 µM | [3] 57.3 µM | [8] > 10 µM | [4] 41.3 µM

O=C1CCC(=O)N2CCCCN12
inactive: [2] > 100 µM | [3] > 100 µM | [9] > 100 µM | [8] > 100 µM | [4] > 100 µM | [5] > 100 µM | [6] > 100 µM | [7] > 100 µM

CCOC(=O)Cc1csc(Nc2ccccc2[N+](=O)[O-])n1
inactive: [2] > 100 µM | [3] > 100 µM | [8] 99.1 µM | [4] > 100 µM | [5] > 100 µM | [6] > 100 µM | [7] > 100 µM

Cc1cccc(C(C)(C)C)c1NC(=O)CCc1n[nH]c(=S)o1
inactive: [2] > 100 µM | [3] > 100 µM | [8] 40.9 µM | [4] > 100 µM | [5] > 100 µM | [6] 43.3 µM | [7] > 100 µM

CC1C=C(OC(=O)c2ccccc2)C(=O)C(n2cc(F)c(=O)[nH]c2=O)O1 (configuration not stated)
inactive: [1] 48.1 µM | [2] > 100 µM | [3] 94.6 µM | [8] 42.8 µM | [4] 56 µM | [5] > 100 µM | [6] > 100 µM | [7] 93.3 µM

Cc1cccc(C)c1NC(=O)CCc1nnc2s/c(=C\c3ccc(Cl)cc3)c(=O)n12
inactive: [1] 52.8 µM | [2] 70 µM | [3] > 100 µM | [8] 54.6 µM | [4] 75.7 µM | [5] > 100 µM | [6] > 100 µM | [7] > 100 µM

NC(CCCCNCc1ccccc1O)C(=O)O (configuration not stated)
inactive: [2] > 100 µM | [3] > 100 µM | [8] > 100 µM | [4] > 100 µM | [5] > 100 µM | [6] > 100 µM | [7] > 100 µM

CCC1C(C(=O)Nc2ccccc2C)=C(C)NC(C)=C1c1ccccc1C (configuration not stated)
inactive: [1] > 100 µM | [2] > 100 µM | [3] > 92.3 µM | [8] > 49 µM | [4] > 100 µM | [5] > 60.8 µM | [7] > 80.4 µM

CC(=O)O[C@H]1CC[C@@]2(C)C(=CC[C@H]3C(CC#N)[C@@](C)(C#N)CCC32)C1 (some centres not stated)
inactive: [1] > 100 µM | [2] 47.6 µM | [3] > 100 µM | [8] > 100 µM | [4] > 100 µM | [6] > 100 µM | [7] > 100 µM

CS(=O)(=O)Oc1cccc(/C=N/N=C(\N)NO)c1
inactive: [1] 10.7 µM | [2] > 100 µM | [8] 19.9 µM | [4] 19.2 µM | [5] 69.8 µM | [6] 9.55 µM | [7] 42.5 µM

COc1ccc(/C=C/c2cc(OC)c(OC(C)=O)c(OC)c2)cc1
inactive: [1] 34.5 µM | [2] 22 µM | [3] 35.1 µM | [9] 36.1 µM | [8] 31.2 µM | [4] 27.5 µM | [6] 26.5 µM | [7] 30.1 µM
